Test results from patent US10822376B2, “Biologically active peptides” (Baxalta Incorporated, priority 2008, dated 2020).
Where a SMILES comes first, the peptide text is derived from it. Bridges are numbered along the chain shown (N, C = ends). Roman numbers before positions name the chains, in order. [ ]: non-standard residue; d: D form.

How the values were obtained:
[1] = test system: human FVIII inhibited plasma; test: Defined Intrinsic Thrombin Generation Assay (DITGA, triggered by FXIa and phospholipids); assay type: biochemical; conditions: for Activity in the Defined Intrinsic Thrombin Generation Assay: summary
Text: (§1) The intrinsic pathway of thrombin generation may be assayed in a thrombin generation assay by including FXIa and phospholipids. In such an assay, which is similar to an activated partial thromboplastin time (aPTT) test, thrombin generation is solely directed through the intrinsic pathway, and is FVIII dependent. A suitable assay is the Defined Intrinsic Thrombin Generation Assay described below. Alternatively, by employing low concentrations of TF and phospholipids instead of FXIa and phospholipids, thrombin is generated by both the extrinsic (tissue factor) and the intrinsic pathways. This form of the thrombin generation assay is the more physiologic one, as both thrombin generation pathways are involved; it is partially FVIII dependent. A suitable assay is the Defined Dual-Pathway Thrombin Generation Assay.
The Defined Intrinsic Thrombin Generation Assay is performed as follows. FVIII activity of human plasma is inhibited by incubating (2 hours, 37° C.) 40 μl of human normal plasma with 10 μl heat inactivated anti-human FVIII plasma raised in goat (600 BU/ml, 6 hours incubated at 56° C.). […] Instead of FVIII-inhibited plasma, FVIII inhibitor patient plasma or several depleted plasmas can be used. The micro-plate is immediately put into a GENios Plus (Tecan) or Safire 2 (Tecan) fluorescence reader and the fluorescence signal (ex 340 nm/em 440 nm) is followed kinetically by reading the plate every 21 seconds.
For calculation of activity equivalent units experiments are performed with dilutions of Factor Eight Inhibitor Bypassing Agent (FEIBA, Baxter AG), Immunate (human FVIII, purified plasma derived) reference standard (Baxter AG) or Recombinate standard (human FVIII, purified recombinant, Baxter AG). A linear fit of the logarithm of FEIBA (FVIII) concentration plotted against thrombin generation time at peak thrombin results in a standard curve. With this curve FEIBA (FVIII) equivalent activity is calculated for a defined peptide concentration. […] Thus, where a concentration of 100 μM is given, the actual concentration in the final assay volume in 40 μM.
Compounds were screened using the “Defined intrinsic thrombin generation assay” in which thrombin generation was quantified in vitro in FVIII-inhibited human plasma in the presence of Factor XIa and phospholipid vesicles. Further compounds were screened in the above assay, and in the “Defined dual-pathway thrombin generation assay” using tissue factor and phospholipids instead of Factor XIa and phospholipids, as described in the specific description.
Various concentrations of each peptide were tested in the defined intrinsic thrombin generation assay using human FVIII inhibited plasma.

[2] = test system: FVIII-inhibited human normal plasma; test: Defined Fibrin Deposition Assay (clotting time); assay type: biochemical
Protocol: Another suitable assay to determine procoagulant activity, and particularly FVIII equivalent activity or FVIII inhibitor bypassing activity, is the Defined Fibrin Deposition Assay as described below. […] This assay is particularly useful for determining coagulation FVIII activity because it is conducted in the presence of FVIII-depleted or inhibited plasma.
The Defined Fibrin Deposition Assay is performed as follows. FVIII activity of human citrated plasma (Baxter AG) is first inhibited by incubating (2 hours, 37° C.) 100 μl of human normal plasma with 25 μl heat inactivated anti-human FVIII plasma (300 BU/ml, 6 hours incubated at 56° C.) raised in goat. For each sample to be tested, 125 μl of this FVIII-inhibited human normal plasma is transferred to a pre-warmed cuvette and a 75 μl dilution of a test compound or FEIBA reference standard (Baxter AG) is added. The dilutions of test compound or FEIBA reference standard contain 50 mM imidazole, 100 mM NaCl and 10 mg/ml human serum albumin (Sigma) pH 7.4. As a trigger and for providing procoagulant surfaces 100 μl of a mix of human factor XIa (3.13 nM, Enzyme Research Laboratories) and phospholipid (PL) vesicles (Phosphatidylcholine/Phosphatidylserine 60%/40%, 30 μM; Avanti Polar Lipids) in 50 mM Imidazole, 100 mM NaCl, 10 mg/ml human serum albumin (Sigma) pH 7.4 is included. After incubating for three minutes at 37° C. the coagulation reaction is started by adding 100 μl of 25 mM CaCl2. Clot formation is monitored by a coagulometer (KC10A, Amelung, Germany). In brief, each cuvette rotates slowly above the magnetic detection device and contains a small magnetic metallic ball. Whilst the plasma components remain in solution, the ball sits at the bottom of the cuvette. Over time, a clot begins to form, such that the ball starts to rotate with the developing clot in the rotating cuvette. The “clotting time” is recorded and is defined as the time from addition of the CaCl2) to the time that the developing clot begins to rotate the metallic ball. A standard curve for FEIBA reference standard dilutions is calculated by linear regression of logarithmic FEIBA concentrations (x-axis) against the clotting time (y-axis). Based on the clotting time of each compound concentration FEIBA equivalent activities are calculated according to this standard curve.
Thus, where a concentration of 100 μM is given, the actual concentration in the final assay volume in 25 μM.
Various peptides were tested for the ability to stimulate fibrin deposition in the Defined Fibrin Deposition Assay as described in the specific description.

FVIII deficient plasma = test: Defined Dual-Pathway Thrombin Generation Assay (DDPTGA, reagent C high), FVIII deficient plasma; assay type: biochemical, human; conditions: for Effect on both peak time and peak IIa of thrombin generation: DDPTGA, comment on Table 10; for Peak IIa FVIII EU / Peak Time FVIII EU: FVIII deficient plasma
Text: as §1
(§2) Preferably, Reagent C high is used.
(§3) Tissue factor dependency of peak thrombin generation and thrombin peak time was characterised in a composition containing a fixed concentration of phospholipid (namely 3.2 μM). Phospholipid dependency was characterised in a composition containing a fixed concentration of tissue factor (namely 7.2 μM). Peak time (time to peak thrombin generation) was dependent on the concentration of phospholipid or tissue factor. The final version of this assay is as described in the specific description, in which 10 μl reagent C high containing (32 μM phospholipid and 71.6 μM tissue factor) is used in a total volume of 100 μl.
(§4) Further studies were conducted using 3.2 μM phospholipid and 7.2 μM tissue factor in FVIII deficient or inhibited plasma, to characterise the effect on peak thrombin generation and thrombin peak time of various coagulation factor preparations. These studies provided a basis from which to compare the efficacy of the compounds in the assay. Briefly, rFVIII (Recombinate® FVIII from Baxter) was tested at 0, 5, 10, 20, 40 and 80 mU/ml in FVIII deficient plasma. FEIBA was tested at 0, 8, 16, 31, 63 and 125 mU/ml in FVIII inhibited plasma. FVIIa was tested at 0, 0.1, 0.4, 1.6, 6.3 and 25 nM in FVIII inhibited plasma. […] Peak thrombin increased and both the lag time and the thrombin peak time decrease.

FVIII inhibited plasma = test: Defined Dual-Pathway Thrombin Generation Assay (DDPTGA, reagent C high), FVIII inhibited plasma; assay type: biochemical, human; conditions: for Peak IIa FEIBA EU / Peak IIa FVIIa EU / Peak Time FEIBA EU / Peak Time FVIIa EU: FVIII inhibited plasma; for Activity in the Defined Dual-Pathway Thrombin Generation Assay: summary, FVIII inhibited or deficient plasma
Text: as §1, §2, §3, §4

| Molecule | Thrombin peak time given as FEIBA equivalent activity ([1]; peptide 12.5 μM) | Thrombin peak time given as FEIBA equivalent activity ([1]; peptide 25 μM) | Thrombin peak time given as FEIBA equivalent activity ([1]; peptide 50 μM) | Thrombin peak time given as FEIBA equivalent activity ([1]; peptide 100 μM) | Activity in the Defined Intrinsic Thrombin Generation Assay [1] | Effect on both peak time and peak IIa of thrombin generation (FVIII deficient plasma) | Peak IIa FVIII EU (FVIII deficient plasma; peptide 100 μM) | Peak Time FVIII EU (FVIII deficient plasma; peptide 100 μM) | Peak IIa FEIBA EU (FVIII inhibited plasma; peptide 100 μM) | Peak IIa FVIIa EU (FVIII inhibited plasma; peptide 100 μM) | Peak Time FEIBA EU (FVIII inhibited plasma; peptide 100 μM) | Peak Time FVIIa EU (FVIII inhibited plasma; peptide 100 μM) | Activity in the Defined Dual-Pathway Thrombin Generation Assay (FVIII inhibited plasma) | Peak IIa FVIII EU (FVIII deficient plasma; peptide 50 μM) | Peak Time FVIII EU (FVIII deficient plasma; peptide 50 μM) | Peak IIa FEIBA EU (FVIII inhibited plasma; peptide 50 μM) | Peak IIa FVIIa EU (FVIII inhibited plasma; peptide 50 μM) | Peak Time FEIBA EU (FVIII inhibited plasma; peptide 50 μM) | Peak Time FVIIa EU (FVIII inhibited plasma; peptide 50 μM) | other results |
| --- | --- | --- | --- | --- | --- | --- | --- | --- | --- | --- | --- | --- | --- | --- | --- | --- | --- | --- | --- | --- |
| CC[C@@H](C)[C@H]1NC(=O)[C@H](NC(C)=O)CSSC[C@H](C(=O)N[C@H](Cc2ccc(O)cc2)C(=O)N[C@H](CCC(=O)O)C(N)=O)NC(=O)[C@@H](CC(=O)O)NC(=O)[C@@H](Cc2ccc(O)cc2)NC(=O)[C@@H](Cc2c[nH]c3ccccc23)NC(=O)[C@@H](Cc2ccccc2)NC(=O)[C@@H](CCSC)NC1=O [Peptide B01, Ac-(cimfwydc)-ye-NH2] (Ac-[dC][dI][dM][dF][dW][dY][dD][dC][dY][dE]-NH2; disulfide 1-8) | 35 mU/ml | 62 mU/ml | 89 mU/ml | 103 mU/ml | possess activity | – | – | – | – | – | – | – | – | – | – | – | – | – | – | FEIBA EU (from clotting time) ([2]; compound 25 μM): 31 mU/ml; FEIBA EU (from clotting time) ([2]; compound 50 μM): 47 mU/ml; FEIBA EU (from clotting time) ([2]; compound 100 μM): 94 mU/ml; Activity in the Defined Fibrin Deposition Assay ([2]; summary): possess activity |
| CC[C@@H](C)[C@@H](NC(=O)[C@@H](CSSC[C@@H](NC(C)=O)C(=O)N[C@@H](C(=O)N[C@H](CCSC)C(=O)N[C@H](Cc1ccccc1)C(=O)N[C@H](Cc1c[nH]c2ccccc12)C(=O)N[C@H](Cc1ccc(O)cc1)C(=O)N[C@H](CC(=O)O)C(=O)N[C@H](CCC(=O)O)C(=O)N[C@H](Cc1ccc(O)cc1)C(=O)N[C@H](CCC(=O)O)C(N)=O)[C@H](C)CC)NC(C)=O)C(=O)N[C@H](CCSC)C(=O)N[C@H](Cc1ccccc1)C(=O)N[C@H](Cc1c[nH]c2ccccc12)C(=O)N[C@H](Cc1ccc(O)cc1)C(=O)N[C@H](CC(=O)O)C(=O)N[C@H](CCC(=O)O)C(=O)N[C@H](Cc1ccc(O)cc1)C(=O)N[C@H](CCC(=O)O)C(N)=O [Peptide B04, Disulphide-Dimer(Ac-cimfwydeye-NH2)2] (I: Ac-[dC][dI][dM][dF][dW][dY][dD][dE][dY][dE]-NH2 / II: Ac-[dC][dI][dM][dF][dW][dY][dD][dE][dY][dE]-NH2; disulfide I:1-II:1) | – | – | – | – | – | positively affected | 5.0 mU/ml | 1.6 mU/ml | 13.3 mU/ml | 0.7 nM | BLS (BLS = below lowest standard.) | BLS (BLS = below lowest standard.) | possess activity | – | – | – | – | – | – | Peak IIa FVIII EU (FVIII deficient plasma; peptide 16 μM): 4.4 mU/ml; Peak Time FVIII EU (FVIII deficient plasma; peptide 16 μM): 4.1 mU/ml; Peak IIa FVIII EU (FVIII deficient plasma; peptide 40 μM): 4.8 mU/ml; Peak Time FVIII EU (FVIII deficient plasma; peptide 40 μM): 7.3 mU/ml; Peak IIa FEIBA EU (FVIII inhibited plasma; peptide 16 μM): BLS (BLS = below lowest standard.); Peak IIa FVIIa EU (FVIII inhibited plasma; peptide 16 μM): 0.1 nM; Peak Time FEIBA EU (FVIII inhibited plasma; peptide 16 μM): BLS (BLS = below lowest standard.); Peak Time FVIIa EU (FVIII inhibited plasma; peptide 16 μM): BLS (BLS = below lowest standard.); Peak IIa FEIBA EU (FVIII inhibited plasma; peptide 40 μM): 12.8 mU/ml; Peak IIa FVIIa EU (FVIII inhibited plasma; peptide 40 μM): 0.6 nM; Peak Time FEIBA EU (FVIII inhibited plasma; peptide 40 μM): BLS (BLS = below lowest standard.); Peak Time FVIIa EU (FVIII inhibited plasma; peptide 40 μM): BLS (BLS = below lowest standard.) |
| Ac-WDLYFEISW-ttds-E [Peptide A15] | – | – | – | – | – | positively affected | 5.0 mU/ml | 12.7 mU/ml | 13.6 mU/ml | 0.7 nM | BLS (BLS = below lowest standard.) | BLS (BLS = below lowest standard.) | possess activity | 4.3 mU/ml | 14.4 mU/ml | BLS (BLS = below lowest standard.) | BLS (BLS = below lowest standard.) | BLS (BLS = below lowest standard.) | BLS (BLS = below lowest standard.) | – |
| Ac-WDLYFEIVW-ttds-K [Peptide A20] | 501 mU/ml | 597 mU/ml | 873 mU/ml | 1101 mU/ml | possess activity | – | – | – | – | – | – | – | – | – | – | – | – | – | – | Thrombin peak time given as FEIBA equivalent activity ([1]; peptide 6.25 μM): 391 mU/ml |
| Ac-WSLYFEIVWE [Peptide A14] | – | – | – | – | – | – | BLS (BLS = below lowest standard.) | BLS (BLS = below lowest standard.) | BLS (BLS = below lowest standard.) | BLS (BLS = below lowest standard.) | BLS (BLS = below lowest standard.) | BLS (BLS = below lowest standard.) | – | BLS (BLS = below lowest standard.) | BLS (BLS = below lowest standard.) | BLS (BLS = below lowest standard.) | BLS (BLS = below lowest standard.) | BLS (BLS = below lowest standard.) | BLS (BLS = below lowest standard.) | – |
| PEG5000-ERMEFDVWDLYFEIVW-NH2 [Peptide A18] | – | – | – | – | – | – | BLS (BLS = below lowest standard.) | 17.1 mU/ml | BLS (BLS = below lowest standard.) | BLS (BLS = below lowest standard.) | BLS (BLS = below lowest standard.) | BLS (BLS = below lowest standard.) | possess activity | BLS (BLS = below lowest standard.) | BLS (BLS = below lowest standard.) | BLS (BLS = below lowest standard.) | BLS (BLS = below lowest standard.) | BLS (BLS = below lowest standard.) | BLS (BLS = below lowest standard.) | – |
